Experimental data from ChEMBL document CHEMBL1641590, “Identification of novel ASK1 inhibitors using virtual screening” (Bioorg Med Chem, 2011).

Experiments:
[1] = target: T1, Mitogen-activated protein kinase kinase kinase 5 (Homo sapiens) (UniProt Q99683); assay: Inhibition of ASK1 assessed as phosphorylated fluorescent peptide at 10 uM by mobility shift assay
T1 sequence (whole entry): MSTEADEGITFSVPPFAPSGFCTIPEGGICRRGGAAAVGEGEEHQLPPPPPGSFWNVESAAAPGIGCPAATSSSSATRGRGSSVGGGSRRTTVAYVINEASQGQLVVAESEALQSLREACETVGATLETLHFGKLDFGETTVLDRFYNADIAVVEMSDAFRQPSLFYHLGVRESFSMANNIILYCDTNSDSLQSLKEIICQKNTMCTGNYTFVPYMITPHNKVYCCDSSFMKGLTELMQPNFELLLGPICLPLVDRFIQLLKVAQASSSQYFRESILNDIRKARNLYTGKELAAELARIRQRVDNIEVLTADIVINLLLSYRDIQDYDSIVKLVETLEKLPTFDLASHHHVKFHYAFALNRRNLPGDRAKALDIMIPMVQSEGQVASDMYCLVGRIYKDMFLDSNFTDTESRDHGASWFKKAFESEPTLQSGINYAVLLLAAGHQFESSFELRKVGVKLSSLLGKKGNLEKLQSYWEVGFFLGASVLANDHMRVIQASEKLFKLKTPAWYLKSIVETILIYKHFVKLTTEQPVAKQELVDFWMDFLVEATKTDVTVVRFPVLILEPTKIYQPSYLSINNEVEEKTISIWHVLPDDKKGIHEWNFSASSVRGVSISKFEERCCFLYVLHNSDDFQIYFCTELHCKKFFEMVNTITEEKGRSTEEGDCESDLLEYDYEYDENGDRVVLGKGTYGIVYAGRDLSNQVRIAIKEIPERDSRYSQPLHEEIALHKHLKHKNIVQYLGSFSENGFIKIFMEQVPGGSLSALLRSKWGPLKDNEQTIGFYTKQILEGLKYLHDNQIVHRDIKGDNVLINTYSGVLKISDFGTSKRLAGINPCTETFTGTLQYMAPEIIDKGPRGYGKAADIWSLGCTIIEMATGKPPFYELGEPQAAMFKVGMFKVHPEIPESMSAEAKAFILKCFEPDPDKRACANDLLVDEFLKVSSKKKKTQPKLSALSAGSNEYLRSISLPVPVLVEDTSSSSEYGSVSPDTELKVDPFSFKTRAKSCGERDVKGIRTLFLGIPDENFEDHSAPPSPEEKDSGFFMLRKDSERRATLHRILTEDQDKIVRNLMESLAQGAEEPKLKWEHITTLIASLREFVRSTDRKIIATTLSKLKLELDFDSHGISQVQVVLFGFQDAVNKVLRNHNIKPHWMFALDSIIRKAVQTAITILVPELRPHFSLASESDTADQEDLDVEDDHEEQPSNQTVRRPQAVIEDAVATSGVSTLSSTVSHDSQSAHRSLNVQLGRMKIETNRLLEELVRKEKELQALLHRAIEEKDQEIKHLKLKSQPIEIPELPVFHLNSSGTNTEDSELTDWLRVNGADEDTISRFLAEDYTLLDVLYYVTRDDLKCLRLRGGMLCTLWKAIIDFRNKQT

[2] = target: T2, Mitogen-activated protein kinase kinase kinase 5 (Homo sapiens, UniProt Q99683); assay: Inhibition of ASK1 assessed as phosphorylated fluorescent peptide by mobility shift assay
T2 sequence (Q99683 whole entry): T1 sequence (whole entry)

| Structure (SMILES) | inhibition [1] | IC50 [2] |
| --- | --- | --- |
| CCCN(CCC)c1[nH]cnc2ncnc1-2 | > 50% | 25.8 µM |
| Nc1nc(Nc2cccc3ccccc23)c2nc[nH]c2n1 | > 30% | – |
| Cc1c(C)n(C2CCCC2)c2nc[nH]c(=O)c12 | > 30% | – |
| CNc1nc(N)c(C(=O)c2ccc(F)cc2)s1 | > 30% | – |
| Nc1nc(SCc2c(Cl)cccc2Cl)c2nc[nH]c2n1 | > 30% | – |
| CC(C)(C)c1ccc(C(=O)Nc2cn3c(ccc4ccccc43)n2)cc1 | – | 0.015 µM |
| CS(=O)(=O)c1ccc(C(=O)Nc2nc3ccccc3[nH]2)cc1[N+](=O)[O-] | > 30% | – |
| CC(C)(C(=O)O)c1ccc(C(=O)Nc2cn3cc(-c4ccsc4)ccc3n2)cc1 | – | 0.019 µM |
| Nc1nc(OCC2CCCCC2)c2nc[nH]c2n1 | > 50% | – |
| CCNc1nc(N)c(C(C)=O)s1 | > 30% | – |
| CNc1nc(-c2cccnc2)cn2ccnc12 | > 30% | – |
| CC(C)(C)c1ccc(C(=O)Nc2cn3cc(-n4ccnc4)ccc3n2)cc1 | – | 0.014 µM |
| c1nc(N2CCCCC2)c2nc[nH]c2n1 | > 50% | 17 µM |
| Nc1nc(SCCCCC(O)O)c2nc[nH]c2n1 | > 30% | – |
| Nc1nc(N)c2c(Cl)c(Br)ccc2n1 | > 30% | – |
| CSc1nc(N)nc2[nH]cnc12 | > 50% | 13.3 µM |
| CN(C)c1ncnc2nc[nH]c12 | > 30% | – |
| COc1cccc(C(=O)NN2CC(=O)C(c3nc4ccccc4c(=O)[nH]3)=C2N)c1 | > 30% | – |
| Cc1c(C)n(CC(C)C)c2ncnc(N)c12 | > 30% | – |
| COc1ccc(OC)c(Nc2nc(N)nc3[nH]cnc23)c1 | > 50% | 18.9 µM |
| Nc1nc(OCc2ccccc2)c2nc[nH]c2n1 | > 30% | – |
| O=C(Nc1nc2ccccc2[nH]1)c1ccc2ncsc2c1 | > 30% | – |
| NC(=O)c1ccc(-n2cnc3ccccc32)cc1 | > 30% | – |
| O=C(Nc1ccc(N2CCOCC2)cc1)c1n[nH]c2ccccc12 | > 30% | – |
